This passage reports root length results from patent publication US20110152099A1, “BIOACTIVE COMPOUNDS OF ASCOPHYLLUM NODOSUM AND THEIR USE FOR ALLEVIATING SALT-INDUCED STRESS IN PLANTS” (priority 2008, published 2011).

Molecules are shown by their SMILES.

For this experiment, the system named is plants under salt stress. In words: Root length under salt stress. The experiment is classed as in vivo. To be noted: compared to +Na untreated plants. An excerpt: The code numbers in FIG. 18 refer to different organic extracts.

With `C/C=C(/CCC(C)C1CCC2C3CC=C4CC(O)CCC4(C)C3CCC12C)C(C)C` (stereo not shown) [fucosterol, 24-ethylidene cholesterol], the root length result is “longer root length”.
